Measurements reported in US20100168050A1, “COMPOUNDS HAVING ANTIANGIOGENIC ACTIVITY” (MEDESTEA INTERNAZIONALE S.P.A, priority 2004, published 2010).

Assays:
HUVEC = HUVEC apoptosis/necrosis, annexin V and propidium iodide staining; format: cell-based, human; conditions: ATP 3 mM
Text: It is possible that the inhibition of the ATP-dependent pathway can induce the shift to another metabolic activity, as the glycolysis. […] The block of the HUVEC proliferation is further evidenced by the absence of cell apoptosis due to the treatment of the cells with the tested compounds, as reported in the FIG. 9 (the results are representative of 5 experiments). Only the treatment with ATP was able to induce about 4.5% PI positive, e.g. necrotic cells.
In the second series of experiments, we studied the differences in the apoptosis induction on human promyelocytic leukemia HL60 cells by ATP and by the inhibitors of the P2X7 receptors. Apoptotic cells and necrotic cells were analyzed by staining the cells with annexin V and propidium iodide (PI) (BD Pharmingen apoptosis kit, San Diego, Calif.). Briefly, an aliquot of 10^5 cells was incubated with annexin V-fluorescein isothiocyanate (FITC) and PI for 15 minutes at room temperature in the dark. The cells were immediately analyzed by FACScalibur (Becton Dickinson, Heidelberg, Germany). The emission/excitation wavelengths were 530/488 nm for annexin V FITC (FL1) and 640 nm/488 nm for PI (FL2). The necrotic cells were annexin V- and PI-positive, whereas apoptotic cells were annexin V-positive and PI-negative. The percentage of cells stained in each quadrant was quantified using the cellQuest software (BD Bioscience, San Josew, Calif.). […]

[1] = system: lymphocytes from buffy-coat (PMBC), activated or not with PHA; experiment: Cell apoptosis assay, annexin V/PI FACS; format: cell-based; conditions: oATP at high concentrations
Protocol: Lymphocytes were obtained from a buffy-coat by a fycoll gradient and depleted from monocytes by adherence. Lymphocytes were activated with Phytohaemoagglutinin A mitogen (PHA). Apoptosis was evaluated by FACS analysis, after staining with annexin-V FITC-conjugate to show the exposure of phosphatidyl serine on the external side of plasma membranes, and with propidium iodide (PI). Two thousand RMA wt cells and lymphocytes were treated with or without different concentrations of oATP for 24 and 48 hours. The cells were then washed with PBS with Ca++ and Mg++ and stained. Ten thousand cell/sample were analysed and the percentage of annexin V/PI positive cells was calculated with FCS-express software (DE NOVO Software).

[2] = system: Human endothelial Cells (HUVEC); experiment: Proliferation assay, HUVEC counted in Burker chamber; format: cell-based
Protocol: Human endothelial Cells (HUVEC) were isolated from umbilical vein, counted and seeded in a constant number in a 96-well plate. The cells were cultured as described (Jaffe, E. A. (1984) Biology of Endothelial Cells, Martinus Nighoff Publisher, Boston, USA, pp. 1-260), with or without (control) VEGF (50 ng/ml), in the presence of o-ATP (100 μM), and o-ATP+VEGF. After 24 hours cultivation with or without stimulus, the cells were washed and counted with an optical microscope using a Burker chamber. The results are reported in FIG. 1 and represent the mean±SD of 10 experiments.

[3] = system: TNFalpha receptor 1 (TNFR1) on HUVEC; experiment: Cytofluorometric assay of TNFalpha receptor expression on endothelial cells; format: cell-based, human
Text: In addition, oATP was cytofluorometrically assayed for its ability to modulate the expression of TNFalpha receptors on endothelial cells. As reported in the FIG. 9a, the use of human TNFalpha (100 U/ml) improved the expression of the TNFalpha receptor 1 (TNFR1) on HUVEC. […] However, oATP was able to downregulate the TNFalpha-induced increased expression of TNFR1.

[4] = system: human promyelocytic leukemia HL60 cells; experiment: HL60 apoptosis/necrosis, annexin V-FITC and PI staining; format: cell-based; conditions: oATP 300 microM versus PPADS 50 microM and KN62 10 microM
Protocol: In the second series of experiments, we studied the differences in the apoptosis induction on human promyelocytic leukemia HL60 cells by ATP and by the inhibitors of the P2X7 receptors. Apoptotic cells and necrotic cells were analyzed by staining the cells with annexin V and propidium iodide (PI) (BD Pharmingen apoptosis kit, San Diego, Calif.). Briefly, an aliquot of 10^5 cells was incubated with annexin V-fluorescein isothiocyanate (FITC) and PI for 15 minutes at room temperature in the dark. The cells were immediately analyzed by FACScalibur (Becton Dickinson, Heidelberg, Germany). The emission/excitation wavelengths were 530/488 nm for annexin V FITC (FL1) and 640 nm/488 nm for PI (FL2). The necrotic cells were annexin V- and PI-positive, whereas apoptotic cells were annexin V-positive and PI-negative. The percentage of cells stained in each quadrant was quantified using the cellQuest software (BD Bioscience, San Josew, Calif.). […] FIG. 11 summarizes the effects of the different treatments on the apoptosis/necrosis induction in the HL60 cells.

[5] = system: RMA wild type (wt) murine lymphoma T cell line; experiment: Cell apoptosis assay, annexin V/PI FACS; format: cell-based, mouse
Protocol: RMA wild type (wt) murine lymphoma T cell line (ATCC) was grown in RPMI 1640 supplemented with 10% heat inactivated fetal bovine serum, 100 U/ml penicillin, 100 microg/ml streptomycin.
Apoptosis was evaluated by FACS analysis, after staining with annexin-V FITC-conjugate to show the exposure of phosphatidyl serine on the external side of plasma membranes, and with propidium iodide (PI).
Two thousand RMA wt cells and lymphocytes were treated with or without different concentrations of oATP for 24 and 48 hours. The cells were then washed with PBS with Ca++ and Mg++ and stained.
Ten thousand cell/sample were analysed and the percentage of annexin V/PI positive cells was calculated with FCS-express software (DE NOVO Software).

[6] = system: human umbilical vein endothelial cells (HUVEC); experiment: HUVEC cell growing number, crystal violet absorbance at 595 nm; format: cell-based
Protocol: HUVEC were isolated from human umbilical cord by collagenase treatment and cultured in 1% gelatine-coated flasks using endotoxin-free Medium 199, containing 20% heat-inactivated fetal bovine serum, 1% bovine retinal-derived growth factor, 90 microg/ml heparin, 100 IU/ml penicillin and 100 microg/ml streptomycin. All experiments were carried out with HUVEc at the passage 1-4.
We used oATP at the concentration of 500 microM. HUVEC were treated with oATP over night, washed and fixed with glutaraldeide 2% in PBS. The cells were colored with crystal violet 0.1%, washed and dried. The dye solubilization was performed with acetic acid 10% and the absorbance was measured spectrophotometrically at 595 nm, using a microplate reader. The optical density was proportional to the number of cells.
In the first series of experiments we studied the proliferation of human umbilical vein endothelial cells (HUVEC), obtained as previously described (1). The HUVEC were treated with each of the compounds for 36 hours, washed and fixed with glutaraldeide 2% in PBS. The cells were colored with crystal violet 0.1%, washed and dried. The dye solubilization was performed with acetic acid 10% and the absorbance was measured spectrophotometrically at 595 nm, using a microplate reader. The optical density was proportional to the number of cells.

[7] = system: RMA cells (T-cell lymphoma); experiment: Tumor growth after subcutaneous RMA cell injection in C57BL/6 mice; format: in vivo, mouse
Text: RMA cells were derived from the Rausher leukemia virus-induced mouse T-cell lymphoma RBL-5 of B6 origin and maintained in RPMI 1640 medium, supplemented with fetal bovine serum, 1% penicillin/streptomycin and 1% glutamine (complete medium).
(§1) C57BL/6 female mice weighing about 18-20 g (8 week old) were used. The cells were washed twice with 0.9% NaCl and subcutaneously injected in each mouse in a volume of 100 microliters containing 7×10^4 cells. After 10 days from RMA cell injection, we treated the mice with oATP. Five groups of mice were studied (each of 7 mice): 1) controls, untreated; 2) locally (subcutaneously) (sc) treated with 0.5 mg of oATP; 3) locally (sc) treated with 1 mg oATP; 4) intraperitoneally treated with 1 mg oATP; 5) locally (sc) treated with 1 mg oATP for 3 days only.
(§2) The mice were observed until the 20th day from the tumor inoculation: they were weighed daily and the size of the tumor mass was daily measured.

[8] = Body weight of RMA tumor-bearing mice during treatment; format: in vivo, mouse; conditions: during the different oATP treatments (0.5 or 1 mg sc, 1 mg ip)
Protocol: as §1, §2

macrophage cell lines = conditions: Murgia et al. 1993; cited from earlier work
[9] = system: PBMC transendothelial migration through a HUVEC monolayer; experiment: Transendothelial migration assay, PBMC through HUVEC monolayer; format: cell-based, human
Protocol: VEGF is a prototypic angiogenetic factor which induces endothelial cell proliferation, angiogenesis and capillary permeability. The latter is evidenced by the assay of transendothelial migration. It is known that VEGF increases transendothelial migration. Migration assay was performed using a Transwell double chamber system (5 micrometer polycarbonate membrane). HUVEC (5×10^4 cells/well) were seeded on the filter, in the presence or absence of TNFα (200 U/ml) and oATP 500 microM. Freshly obtained PMBC (peripheral blood mononuclear cells) by means of fycoll from buffy-coat were added in the upper compartment and allowed to migrate over night to the lower chamber which contained RPMI and 10% fetal calf serum. […] Data represent mean±SEM of 7 experiments.

[10] = system: rat paw inflammation (CFA); conditions: WO 02/11737; cited from earlier work
[11] = system: microglia cells expressing P22/P2X7; conditions: Ferrari et al. 1997; cited from earlier work
RMA wt cells = experiment: Cell cycle analysis, PI staining, FACScan; format: cell-based, mouse
Protocol: RMA wt cells were treated with different concentrations of oATP for 24 and 48 hours, then fixed for at least four hours in ice-cold 70% ethanol. Cells were stained with a solution containing NP-40, RNase and PI and cell cycle distribution was detected using FACScan (Becton Dickinson, San Jose, Calif.) and analyzed with FCS-express software.
Cell cycle progression of RMA wt cell line treated with different concentrations of oATP for 24 or 48 hours.

[12] = group 3: locally (sc) 1 mg oATP

## Nc1ncnc2c1ncn2[C@@H]1O[C@H](COP(=O)(O)OP(=O)(O)OP(=O)(O)O)[C@@H](O)[C@H]1O [ATP]
HUVEC
  PI positive, e.g. necrotic cells: about 4.5%

## Nc1ncnc2c1ncn2[C@@H](C=O)O[C@@H](C=O)COP(=O)(O)OP(=O)(O)OP(=O)(O)O [oATP, adenosine-5′-triphosphate-2′,3′-dialdehyde]
[1]
  apoptosis of lymphocytes: not of lymphocytes
[2]; in vitro, HUVEC
  effect on HUVEC proliferative capacity compared with vasostatin: higher than that induced by vasostatin
[2]; o-ATP 100 μM, 24 hours, even in the presence of a mitogen (VEGF 50 ng/ml)
  proliferative capacity of HUVEC: significant reduction
[3]; human TNFalpha 100 U/ml plus oATP
  TNFalpha-induced increased expression of TNFR1: downregulate
[3]; oATP alone
  expression of TNFR1 on HUVEC: did not modify such expression
[4]
  cell apoptosis induction on HL60: at better extent with respect to PPADS and KN62
[5]; RMA wt, oATP 1 mM, 48 hours
  percentage of AnnexinV/PI positive cells: strongly increases
[5]; oATP at high concentrations
  apoptosis of RMA cells: able to induce apoptosis
[6]; 36 hours, ATP 3 mM, oATP 300 microM, PPADS 50 microM, KN62 10 microM
  cell growing number (HUVEC proliferation): maximal reduction
[6]; oATP 500 microM over night
  cell growing number (optical density): significantly reduced
[7]; [12]
  consistency of the tumor mass obtained in 20 days: less solid than the tumor mass obtained in the other groups
  tumor growth at 20 days from RMA cell injection: less evident than that observed in the other groups
[7]; group 3: locally (sc) 1 mg oATP, three days from the beginning of the treatment (until the 14th day)
  tumor mass (arbitrary units): did not significantly grow
[7]; group 5: locally (sc) 1 mg oATP for 3 days only, three days from the beginning of the treatment
  tumor mass (arbitrary units): did not significantly grow
[7]; local continuous treatment with 1 mg oATP
  tumor growth: significantly slowing the tumor growth
[8]
  body weights of the mice: No significant differences
Macrophage cell lines
  ATP-induced permeabilization of the plasma membrane: able to block
[9]; addition of oATP, no TNFα
  non-stimulated PBMC transendothelial migration: inhibited
[9]; oATP 500 microM, TNFα 200 U/ml, over night
  TNFα-induced transendothelial migration of PBMC: significantly reduces
[10]
  effect on CFA-induced unilateral rat paw inflammation: anti-inflammatory and analgesic effect
[11]
  IL-1β release (dependent on LPS): selectively inhibited
RMA wt cells; oATP 0.1 μM, 24 h
  % G0/G1: 48%
  % G2/M: 19%
  % S: 24%
  % subG1: 9%
RMA wt cells; oATP 0.1 μM, 48 h
  % G0/G1: 50%
  % G2/M: 22%
  % S: 24%
  % subG1: 4%
RMA wt cells; oATP 1 μM, 24 h
  % G0/G1: 38%
  % G2/M: 10%
  % S: 29%
  % subG1: 23%
RMA wt cells; oATP 1 μM, 48 h
  % G0/G1: 52%
  % G2/M: 26%
  % S: 19%
  % subG1: 3%
RMA wt cells; oATP 20 μM, 48 h
  % G0/G1: 50%
  % G2/M: 19%
  % S: 23%
  % subG1: 8%
RMA wt cells; oATP 0.1 mM, 24 h
  % G0/G1: 44%
  % G2/M: 5%
  % S: 20%
  % subG1: 31%
RMA wt cells; oATP 0.1 mM, 48 h
  % G0/G1: 33%
  % G2/M: 20%
  % S: 33%
  % subG1: 14%
RMA wt cells; oATP 1 mM, 24 h
  % G0/G1: 16%
  % G2/M: 3%
  % S: 6%
  % subG1: 75%
RMA wt cells; oATP 1 mM, 48 h
  % G0/G1: 44%
  % G2/M: 7%
  % S: 25%
  % subG1: 24%
